We go through two compounds from ChEMBL document CHEMBL4837192, “The Bisindole Alkaloids Angustilongines M and A from Alstonia penangiana Induce Mitochondrial Apoptosis and G0/G1 Cell Cycle Arrest in HT-29 Cells through Promotion of Tubulin Polymerization” (J Nat Prod, 2021).

Assay [1] relates to HT-29. Description: Induction of mitochondrial membrane potential loss in human HT-29 cells assessed as healthy cells at 2.7 uM measured after 48 hrs by JC-1 staining based flow cytometry analysis (Rvb= 91.4%). The class given is functional. Background: A flow cytometer gives signals particle by particle.
Assay [2] has as its system HT-29. Nature of the assay: Induction of mitochondrial membrane potential loss in human HT-29 cells assessed as apoptotic cells at 2.7 uM measured after 72 hrs by JC-1 staining based flow cytometry analysis (Rvb= 8.6%). The format is functional.
Assay [3] relates to HT-29. Description: Induction of cell cycle arrest in human HT-29 cells assessed as accumulation of cells at G2 phase at 2.7 uM measured after 48 hrs by propidium iodide staining based flow cytometry analysis (Rvb= 9.09%). The format is functional.
The subject of assay [4] is HT-29. Nature of the assay: Induction of cell cycle arrest in human HT-29 cells assessed as accumulation of cells at G1 phase at 2.7 uM measured after 48 hrs by propidium iodide staining based flow cytometry analysis (Rvb= 55.39%). The format is functional.
Assay [5] deals with HT-29. Description: Antiproliferative activity in human HT-29 cells cultured as 3D spheroids assessed as reduction in 3D structure of spheroid morphology at IC50 measured after 48 hrs. The format is functional, cell-based.
Assay [6] has as its system HT-29. Nature of the assay: Induction of apoptosis in human HT-29 cells assessed as early apoptotic cells at 2.7 uM measured after 72 hrs by FITC-annexin V/propidium iodide- double staining based flow cytometry analysis (Rvb= 12.8%). The format is functional.
Assay [7] deals with HT-29. Nature of the assay: Antiproliferative activity against human HT-29 cells cultured as 3D spheroids assessed as inhibition of spheroid formation measured after 48 hrs by MTT assay. The class given is functional, cell-based. To be noted: HT-29, 48 h. (In general: Tetrazolium assays rely on reduction of a dye to a coloured formazan, in cell work by metabolically active cells.)

The test system of assay [8] is HT-29. Description: Induction of apoptosis in human HT-29 cells assessed as dead cells at 2.7 uM measured after 48 hrs by FITC-annexin V/propidium iodide- double staining based flow cytometry analysis (Rvb= 0.4%). The format is functional.
For assay [9], the system named is HT-29. Description: Induction of mitochondrial membrane potential loss in human HT-29 cells assessed as apoptotic cells at 2.7 uM measured after 24 hrs by JC-1 staining based flow cytometry analysis (Rvb= 8.6%). The format is functional.
Assay [10] concerns HT-29. Description: Induction of apoptosis in human HT-29 cells assessed as dead cells at 2.7 uM measured after 24 hrs by FITC-annexin V/propidium iodide- double staining based flow cytometry analysis (Rvb= 0.4%). The format is functional.
Assay [11] can be described thus: Selectivity index, ratio of IC50 for human CCD-18Co cells to IC50 for human HT-29 cells assessed as cell growth inhibition measured after 48 hrs by MTT assay.
The test system of assay [12] is HT-29. Nature of the assay: Induction of mitochondrial membrane potential loss in human HT-29 cells assessed as healthy cells at 2.7 uM measured after 72 hrs by JC-1 staining based flow cytometry analysis (Rvb= 91.4%). The class given is functional.
Assay [13] concerns HT-29. Description: Induction of mitochondrial membrane potential loss in human HT-29 cells assessed as healthy cells at 2.7 uM measured after 24 hrs by JC-1 staining based flow cytometry analysis (Rvb= 91.4%). The class given is functional.
Assay [14] relates to HT-29. Nature of the assay: Induction of cell cycle arrest in human HT-29 cells assessed as accumulation of cells at S phase at 2.7 uM measured after 24 hrs by propidium iodide staining based flow cytometry analysis (Rvb= 35.52%). The format is functional.
Assay [15] relates to HT-29. Nature of the assay: Induction of cell cycle arrest in human HT-29 cells assessed as accumulation of cells at G2 phase at 2.7 uM measured after 72 hrs by propidium iodide staining based flow cytometry analysis (Rvb= 9.09%). The class given is functional.
The next assay concerns CCD-18Co. Description: Cytotoxicity against human CCD-18Co cells assessed as cell growth inhibition measured after 48 hrs by MTT assay. The class given is cell-based.
In assay [16] the test system is HT-29. Nature of the assay: Antiproliferative activity in human HT-29 cells cultured as 3D spheroids assessed as gradual disaggregation of peripheral cells at IC50 measured after 48 hrs. The format is functional, cell-based.
Assay [17] relates to HT-29. Nature of the assay: Induction of apoptosis in human HT-29 cells assessed as activation of caspase-3 at 2.7 uM measured after 24 hrs by flow cytometry analysis (Rvb= 2.2%). The format is functional.
Assay [18] deals with HT-29. Description: Induction of cell cycle arrest in human HT-29 cells assessed as accumulation of cells at S phase at 2.7 uM measured after 72 hrs by propidium iodide staining based flow cytometry analysis (Rvb= 35.52%). The format is functional.
Assay [19] has as its system HT-29. Description: Induction of apoptosis in human HT-29 cells assessed as viable cells at 2.7 uM measured after 24 hrs by FITC-annexin V/propidium iodide- double staining based flow cytometry analysis (Rvb= 83.8%). The format is functional. The following applies: read-out: Activity.
In assay [20] the test system is HT-29. Description: Induction of apoptosis in human HT-29 cells assessed as late apoptotic cells at 2.7 uM measured after 24 hrs by FITC-annexin V/propidium iodide- double staining based flow cytometry analysis (Rvb= 3.0%). The format is functional.
Assay [21] has as its system HT-29. Nature of the assay: Induction of apoptosis in human HT-29 cells assessed as late apoptotic cells at 2.7 uM measured after 72 hrs by FITC-annexin V/propidium iodide- double staining based flow cytometry analysis (Rvb= 3.0%). The format is functional.
The subject of assay [22] is HT-29. Description: Induction of apoptosis in human HT-29 cells assessed as viable cells at 2.7 uM measured after 72 hrs by FITC-annexin V/propidium iodide- double staining based flow cytometry analysis (Rvb= 83.8%). The format is functional. To be noted: read-out: Activity.
In assay [23] the test system is HT-29. Description: Induction of apoptosis in human HT-29 cells assessed as activation of caspase-3 at 2.7 uM measured after 72 hrs by flow cytometry analysis (Rvb= 2.2%). The format is functional.
Assay [24] deals with HT-29. Nature of the assay: Induction of cell cycle arrest in human HT-29 cells assessed as accumulation of cells at S phase at 2.7 uM measured after 48 hrs by propidium iodide staining based flow cytometry analysis (Rvb= 35.52%). The class given is functional.
The subject of assay [25] is HT-29. Nature of the assay: Induction of cell cycle arrest in human HT-29 cells assessed as accumulation of cells at G1 phase at 2.7 uM measured after 72 hrs by propidium iodide staining based flow cytometry analysis (Rvb= 55.39%). The format is functional.
The test system of assay [26] is HT-29. Description: Induction of apoptosis in human HT-29 cells assessed as early apoptotic cells at 2.7 uM measured after 24 hrs by FITC-annexin V/propidium iodide- double staining based flow cytometry analysis (Rvb= 12.8%). The class given is functional.
The subject of assay [27] is HT-29. Description: Induction of cell cycle arrest in human HT-29 cells assessed as accumulation of cells at G1 phase at 2.7 uM measured after 24 hrs by propidium iodide staining based flow cytometry analysis (Rvb= 55.39%). The class given is functional.
The test system of assay [28] is HT-29. Nature of the assay: Induction of mitochondrial membrane potential loss in human HT-29 cells assessed as apoptotic cells at 2.7 uM measured after 48 hrs by JC-1 staining based flow cytometry analysis (Rvb= 8.6%). The format is functional.
In assay [29] the test system is HT-29. Description: Induction of apoptosis in human HT-29 cells assessed as late apoptotic cells at 2.7 uM measured after 48 hrs by FITC-annexin V/propidium iodide- double staining based flow cytometry analysis (Rvb= 3.0%). The class given is functional.
Assay [30] deals with HT-29. Description: Anticlonogenic activity against human HT-29 cells assessed as inhibition of colony formation measured after 6 days by methylene blue staining based assay. The class given is functional, cell-based. To be noted: dose 1.35-2.7 µM, time 6.0 day.
The subject of assay [31] is HT-29. Nature of the assay: Induction of apoptosis in human HT-29 cells assessed as activation of caspase-3 at 2.7 uM measured after 48 hrs by flow cytometry analysis (Rvb= 2.2%). The class given is functional.
Assay [32] deals with HT-29. Nature of the assay: Induction of apoptosis in human HT-29 cells assessed as early apoptotic cells at 2.7 uM measured after 48 hrs by FITC-annexin V/propidium iodide- double staining based flow cytometry analysis (Rvb= 12.8%). The format is functional.
Assay [33] relates to HT-29. Description: Induction of apoptosis in human HT-29 cells assessed as viable cells at 2.7 uM measured after 48 hrs by FITC-annexin V/propidium iodide- double staining based flow cytometry analysis (Rvb= 83.8%). The class given is functional. To be noted: read-out: Activity.
Assay [34] has as its system HT-29. Nature of the assay: Induction of cell cycle arrest in human HT-29 cells assessed as accumulation of cells at G2 phase at 2.7 uM measured after 24 hrs by propidium iodide staining based flow cytometry analysis (Rvb= 9.09%). The format is functional.
For assay [35], the system named is HT-29. Nature of the assay: Cytotoxicity against human HT-29 cells assessed as cell growth inhibition measured after 48 hrs by MTT assay. The class given is functional, cell-based. To be noted: HT-29, 48 h.
Another assay concerns the target Tubulin (Homo sapiens) (UniProt P68371+Q9H4B7+P0DPH7+P68366+Q13509+Q71U36+P04350+Q3ZCM7+P07437+P68363+Q9BQE3+Q6PEY2+Q13885+Q9BVA1+Q9BUF5). Nature of the assay: Induction of tubulin polymerization in human HT-29 cells assessed as stabilization of microtubules at 10 uM by spectrophotometric analysis. The class given is cell-based.
The subject of assay [36] is HT-29. Description: Induction of apoptosis in human HT-29 cells assessed as dead cells at 2.7 uM measured after 72 hrs by FITC-annexin V/propidium iodide- double staining based flow cytometry analysis (Rvb= 0.4%). The format is functional.
Assay [37] deals with KB. Nature of the assay: Cytotoxicity against human vincristine-sensitive KB cells assessed as cell growth inhibition measured after 72 hrs by MTT assay. The class given is functional, cell-based.
Assay [38] relates to KB. Description: Cytotoxicity against human vincristine-resistant KB cells assessed as cell growth inhibition measured after 72 hrs by MTT assay. The class given is functional, cell-based.

Molecules are shown by their SMILES. pIC50: −log10 of the molar value. Activity calls are given as the source filed them. No cut-off for these calls is given here.

By pIC50 is commonly meant the IC50 on a negative log10 scale, so that one unit is a factor of ten. In the case of `C/C=C1/CN2CC[C@]34c5cc([C@@H](C)[C@H]6[C@@H]7C[C@H]8c9c(c%10ccccc%10n9C)C[C@@H]([C@@H]7CO[C@@H]6O)N8C)c(OC)cc5N(C)[C@H]3[C@@H]2C[C@@H]1C4C(=O)OC` (stereo not given in full), the Activity is on record as 68.8% in the assay on HT-29 [1]; 64.2% in the assay with HT-29 [2]; 9.01% with HT-29 [3]; 67.84% in the assay with HT-29 [4]; 49.1% in the assay with HT-29 [6]; 0.2% in the assay with HT-29 [8]. In addition, the Activity in the assay with HT-29 [9] came to 11.3%; with HT-29 [10] it was 0.2%; with HT-29 [12], 35.8%; with HT-29 [13], 88.7%; in the assay with HT-29 [14] it was 34.12%; in the assay with HT-29 [15], 9.44%. For the same compound, the Activity in the assay with HT-29 [17] came out at 1.7%; in the assay on HT-29 [18], 13.77%; in the assay on HT-29 [20] it was 9.8%; in the assay on HT-29 [21], 25.6%; with HT-29 [23], 50.2%; in the assay with HT-29 [24], 23.15%. For the same compound, the Activity was 76.79% with HT-29 [25]; 13.8% in the assay with HT-29 [26]; 56.04% with HT-29 [27]; 31.2% in the assay with HT-29 [28]; 9.9% with HT-29 [29]; “Dose-Dependent Effect” with HT-29 [30]. The Activity in the assay with HT-29 [31] turned out to be 8.2%; in the assay on HT-29 [32], 28.2%; in the assay with HT-29 [34] it was 9.84%; in the assay with HT-29 [36], 0.2%. The result in the assay on HT-29 [5], in the assay on HT-29 [16] and at Tubulin (Homo sapiens) was Active. Besides, the values for the pIC50 in the assay with HT-29 [7], in the assay with CCD-18Co and in the assay on HT-29 [35] were 5.00, 4.91 and 5.60, respectively. In assay [11], the “Ratio IC50” value was determined as 4.88. Moreover, the values for the viability at 2.7 µM with HT-29 [19], in the assay on HT-29 [22] and in the assay on HT-29 [33] were 76.2%, 25.2% and 61.8%, respectively.
As for `CC[C@]1(O)C[C@H]2CN(CCc3c([nH]c4ccccc34)[C@@](C(=O)OC)(c3cc4c(cc3OC)N(C=O)[C@H]3[C@@](O)(C(=O)OC)[C@H](OC(C)=O)[C@]5(CC)C=CCN6CC[C@]43[C@@H]65)C2)C1` [VINCRISTINE], the negative-log IC50 (pIC50) in the assay with KB [37] was 9.10; in the assay on KB [38] it was 6.10.
